Experimental data reported in patent US11236046B2, “Substituted heterocyclic sulfonamide compounds useful as TRPA1 modulators” (Genentech, Inc., priority 2013, dated 2022).

Each molecule was assayed against human TRPA1 (Homo sapiens (Human), UniProt O75762) (assay: FLIPR Tetra calcium influx assay, block of cinnamaldehyde-induced calcium influx in CHO cells expressing TRPA1 (human)). Settings: 20 min compound incubation, 75 uM cinnamaldehyde (~EC80), Hill coefficient fixed to 1.5, read-out: hTRPA1 AUC IC50.
Type: cell-based
Experimental: IC50 Determinations of Exemplified Compounds.
IC50s (effective concentration) of compounds on the human and rat TRPA1 channels were determined using a FLIPR Tetra instrument. CHO cells expressing TRPA1 were plated into 384-well plates, incubated overnight at 37C, and loaded with BD calcium indicator dye for 1 hr at 37° C. followed by 15 minutes. at room temperature. The assay buffer was Hank's Balanced Salt Solution (HBSS) containing 20 mM HEPES (pH readjusted to 7.4) along with 0.02% BSA.
Following dye load and plate cool down, compounds were added to the cells using FLIPR Tetra. Plates were then incubated with compounds for 20 minutes at room temperature prior to adding agonist. Following this incubation, ˜EC80 concentration of cinnamaldehyde (75 uM for human TRPA1 and 45 uM for rat TRPA1) was added to active the channels and block of cinnamaldehyde induced calcium influx was measured.
Fixing the Hill coefficient will generally reduce variability of the IC50 determination. The IC50s were individually examined to make sure the MIN and MAX points were set correctly prior to validation of the results.

Sequence of human TRPA1 (O75762 whole entry): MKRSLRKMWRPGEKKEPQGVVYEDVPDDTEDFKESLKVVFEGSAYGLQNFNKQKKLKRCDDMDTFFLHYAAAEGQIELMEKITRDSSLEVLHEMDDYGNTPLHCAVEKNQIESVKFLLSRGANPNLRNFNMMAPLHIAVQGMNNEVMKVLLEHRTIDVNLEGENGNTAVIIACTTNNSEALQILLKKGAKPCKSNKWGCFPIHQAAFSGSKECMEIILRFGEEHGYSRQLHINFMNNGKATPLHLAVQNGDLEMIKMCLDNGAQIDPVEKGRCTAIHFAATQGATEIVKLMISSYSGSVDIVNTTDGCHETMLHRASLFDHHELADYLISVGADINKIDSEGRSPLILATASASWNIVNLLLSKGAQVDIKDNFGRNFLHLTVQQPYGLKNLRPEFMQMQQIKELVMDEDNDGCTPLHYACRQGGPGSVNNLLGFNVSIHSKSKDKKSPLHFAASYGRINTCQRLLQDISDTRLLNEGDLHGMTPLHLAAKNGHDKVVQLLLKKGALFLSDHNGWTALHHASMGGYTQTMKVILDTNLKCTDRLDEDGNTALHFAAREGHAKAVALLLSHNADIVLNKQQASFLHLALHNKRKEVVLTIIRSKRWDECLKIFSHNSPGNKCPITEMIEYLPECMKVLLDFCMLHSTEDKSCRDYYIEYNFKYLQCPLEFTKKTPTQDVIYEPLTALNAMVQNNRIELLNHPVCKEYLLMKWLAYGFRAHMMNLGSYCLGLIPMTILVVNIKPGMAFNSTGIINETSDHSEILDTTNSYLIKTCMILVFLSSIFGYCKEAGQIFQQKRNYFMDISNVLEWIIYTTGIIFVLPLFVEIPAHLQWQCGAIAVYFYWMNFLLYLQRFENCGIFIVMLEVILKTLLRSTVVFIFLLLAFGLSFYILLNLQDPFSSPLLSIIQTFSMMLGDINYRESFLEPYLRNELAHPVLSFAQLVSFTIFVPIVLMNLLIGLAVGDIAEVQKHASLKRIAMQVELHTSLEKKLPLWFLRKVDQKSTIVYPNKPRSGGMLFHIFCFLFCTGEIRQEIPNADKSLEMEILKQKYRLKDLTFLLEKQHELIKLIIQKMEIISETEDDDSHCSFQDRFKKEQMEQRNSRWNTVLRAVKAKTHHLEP

Structure (SMILES) | IC50 [nM]
CC1(C)CC[C@@H](C(=O)NCc2cc(-c3ccc(C(F)(F)F)nc3)ncn2)N1S(=O)(=O)c1ccc(F)cc1 [Example 194, (2S)-1-(4-fluorophenyl)sulfonyl-5,5-dimethyl-N-[[6-[6-(trifluoromethyl)-3-pyridyl]pyrimidin-4-yl]methyl]pyrrolidine-2-carboxamide] | 381
O=C(NCc1cc(-c2ccc(OC(F)(F)F)cc2)ncn1)[C@@H]1[C@@H](F)CCN1S(=O)(=O)c1ccc(F)cc1 [Example 111, (2R,3S)-3-fluoro-1-(4-fluorophenyl)sulfonyl-N-[[6-[4-(trifluoromethoxy)phenyl]pyrimidin-4-yl]methyl]pyrrolidine-2-carboxamide] | 7
O=C(NCc1cc(-c2ccc(C(F)F)c(F)c2)ncn1)[C@@H]1C[C@@H](F)CN1S(=O)(=O)c1ccc(F)cc1 [Example 59, (2S,4R)—N-[[6-[4-(difluoromethyl)-3-fluoro-phenyl]pyrimidin-4-yl]methyl]-4-fluoro-1-(4-fluorophenyl)sulfonyl-pyrrolidine-2-carboxamide] | 29
O=C(NCc1cc(N2CCC3(CC2)CC3(F)F)c(F)cn1)[C@@H]1C[C@@H](F)CN1S(=O)(=O)c1ccc(F)cc1 [Example 69, (2S,4R)—N-[[4-(2,2-difluoro-6-azaspiro[2.5]octan-6-yl)-5-fluoro-2-pyridyl]methyl]-4-fluoro-1-(4-fluorophenyl)sulfonyl-pyrrolidine-2-carboxamide] | 14
C[C@@]1(C(=O)NCc2cc(-c3ccc(C(F)(F)F)nc3)c(F)cn2)C[C@@H](F)CN1S(=O)(=O)c1ccc(F)cc1 [Example 126, (2S,4R)-4-fluoro-1-(4-fluorophenyl)sulfonyl-N-[[5-fluoro-4-[6-(trifluoromethyl)-3-pyridyl]-2-pyridyl]methyl]-2-methyl-pyrrolidine-2-carboxamide] | 25
N#Cc1ccc(-c2cnc(C(F)(F)F)nc2)cc1CNC(=O)[C@@H]1[C@H]2C[C@H]2CN1S(=O)(=O)c1ccc(F)cc1 [Example 176, (1S,2S,5R)—N-(2-cyano-5-(2-(trifluoromethyl)pyrimidin-5-yl)benzyl)-3-((4-fluorophenyl)sulfonyl)-3-azabicyclo[3.1.0]hexane-2-carboxamide] | 8
COc1nn(-c2ccc(C(F)(F)F)cc2)cc1CNC(=O)[C@@H]1C[C@@H](F)CN1S(=O)(=O)c1ccc(F)cc1 [Example 135, (2S,4R)-4-fluoro-1-[(4-fluorobenzene)sulfonyl]-N-([3-methoxy-1-[4-(trifluoromethyl)phenyl]-1H-pyrazol-4-yl]methyl)pyrrolidine-2-carboxamide] | 11
N#Cc1cnc(-c2ccc(C(F)(F)F)nc2)cc1CNC(=O)[C@@H]1C[C@@H](F)CN1S(=O)(=O)c1ccc(F)cc1 [Example 79, (2S,4R)—N-([5-cyano-2-[6-(trifluoromethyl)pyridin-3-yl]pyridin-4-yl]methyl)-4-fluoro-1-[(4-fluorobenzene)sulfonyl]pyrrolidine-2-carboxamide] | 9
CNc1nc(CNC(=O)[C@@H]2C[C@@H](F)CN2S(=O)(=O)c2ccc(F)cc2)cc(-c2ccc(C(F)(F)F)cc2)n1 [Example 105, (2S,4R)-4-fluoro-1-[(4-fluorobenzene)sulfonyl]-N-[[2-(methylamino)-6-[4-(trifluoromethyl)phenyl]pyrimidin-4-yl]methyl]pyrrolidine-2-carboxamide] | 128
O=C(NCc1cc(-c2ccc(C(F)(F)F)cc2)ncn1)[C@@H]1C[C@H]2COC[C@H]2N1S(=O)(=O)c1ccc(F)cc1 (single isomer, unassigned) [Example 99] | 428
C[C@@]1(C(=O)NCc2cc(-c3ccc(C(F)(F)F)nc3)ncn2)C[C@@H](F)CN1S(=O)(=O)c1ccc(F)cc1 (single isomer, unassigned) [Example 142] | 92
O=C(NCc1ccc(F)c(-c2cnc(C(F)(F)F)cn2)c1)[C@@H]1[C@@H](F)CCN1S(=O)(=O)c1ccc(F)cc1 [Example 97, (2R,3S)-3-fluoro-N-([4-fluoro-3-[5-(trifluoromethyl)pyrazin-2-yl]phenyl]methyl)-1-[(4-fluorobenzene)sulfonyl]pyrrolidine-2-carboxamide] | 24
O=C(NCc1cc(F)cc(-c2cnc(C(F)(F)F)nc2)c1)[C@]12C[C@H]1CCN2S(=O)(=O)c1ccc(F)cc1 [Example 181, (1R,5S)-4-(4-fluorophenyl)sulfonyl-N-[[3-fluoro-5-[2-(trifluoromethyl)pyrimidin-5-yl]phenyl]methyl]-4-azabicyclo[3.1.0]hexane-5-carboxamide] | 10
C[C@H]1CC[C@@H](C(=O)NCc2cc(-c3ccc(C(F)(F)F)nc3)ncn2)N1S(=O)(=O)c1ccc(F)cc1 [Example 41, (2S,5S)-1-[(4-fluorobenzene)sulfonyl]-5-methyl-N-([6-[6-(trifluoromethyl)pyridin-3-yl]pyrimidin-4-yl]methyl)pyrrolidine-2-carboxamide] | 5
O=C(NCc1cc(-c2ccc(OC(F)F)cc2)ncn1)[C@@H]1C[C@@H](F)CN1S(=O)(=O)c1ccc(F)cc1 [Example 64, (2S,4R)—N-[[6-[4-(difluoromethoxy)phenyl]pyrimidin-4-yl]methyl]-4-fluoro-1-(4-fluorophenyl)sulfonyl-pyrrolidine-2-carboxamide] | 41

The remaining lines, values ahead:

IC50 [nM] | Structure (SMILES)
39 | O=C(NCc1cc(F)cc(-c2ccc(OC(F)F)nc2)c1)[C@@H]1C[C@@H](F)CN1S(=O)(=O)c1ccc(F)cc1 [Example 76, (2S,4R)—N-([3-[6-(difluoromethoxy)pyridin-3-yl]-5-fluorophenyl]methyl)-4-fluoro-1-[(4-fluorobenzene)sulfonyl]pyrrolidine-2-carboxamide]
21 | O=C(NCc1cc(-c2ccc(OC(F)(F)F)cc2)ncn1)[C@@H]1C[C@@H](F)CN1S(=O)(=O)c1ccc(F)cc1 [Example 145, (2S,4R)-4-fluoro-1-(4-fluorophenylsulfonyl)-N-((6-(4-(trifluoromethoxy)phenyl)pyrimidin-4-yl)methyl)pyrrolidine-2-carboxamide]
192 | O=C(NCc1cc(F)cc(C2CCC(C(F)(F)F)CN2)c1)[C@@H]1C[C@@H](F)CN1S(=O)(=O)c1ccc(F)cc1 (stereo partly drawn) [Example 74, (2S,4R)-4-fluoro-1-(4-fluorophenyl)sulfonyl-N-[[3-fluoro-5-[5-(trifluoromethyl)-2-piperidyl]phenyl]methyl]pyrrolidine-2-carboxamide]
42 | O=C(NCc1cc(-c2cnc(C(F)(F)F)nc2)c(Cl)cn1)[C@@H]1C[C@@H](F)CN1S(=O)(=O)c1ccc(F)cc1 [Example 192, (2S,4R)—N-([5-chloro-4-[2-(trifluoromethyl)pyrimidin-5-yl]pyridin-2-yl]methyl)-4-fluoro-1-[(4-fluorobenzene)sulfonyl]pyrrolidine-2-carboxamide]
8 | COc1cc(CNC(=O)[C@@H]2C[C@@H](F)CN2S(=O)(=O)c2ccc(F)cc2)cc(-c2cnc(C(F)(F)F)nc2)n1 [Example 188, (2S,4R)-4-fluoro-1-(4-fluorophenyl)sulfonyl-N-[[2-methoxy-6-[2-(trifluoromethyl)pyrimidin-5-yl]-4-pyridyl]methyl]pyrrolidine-2-carboxamide]
134 | COc1cnc(-c2cnc(C(F)(F)F)nc2)cc1CNC(=O)[C@@H]1C[C@@H](F)CN1S(=O)(=O)c1ccc(F)cc1 [Example 196, (2S,4R)-4-fluoro-1-(4-fluorophenylsulfonyl)-N-((5-methoxy-2-(2-(trifluoromethyl)pyrimidin-5-yl)pyridin-4-yl)methyl)pyrrolidine-2-carboxamide]
62 | CNc1nc(C(F)(F)F)ccc1-c1cc(CNC(=O)[C@@H]2C[C@@H](F)CN2S(=O)(=O)c2ccc(F)cc2)ccn1 [Example 179, (2S,4R)-4-fluoro-1-(4-fluorophenyl)sulfonyl-N-[[2-[2-(methylamino)-6-(trifluoromethyl)-3-pyridyl]-4-pyridyl]methyl]pyrrolidine-2-carboxamide]
16 | C[C@@]1(F)C[C@@H](C(=O)NCc2cc(F)cc(-c3cnc(C(F)(F)F)nc3)c2)N(S(=O)(=O)c2ccc(F)cc2)C1 [Example 52, (2S,4R)-4-fluoro-N-(3-fluoro-5-(2-(trifluoromethyl)pyrimidin-5-yl)benzyl)-1-((4-fluorophenyl)sulfonyl)-4-methylpyrrolidine-2-carboxamide]
24 | C[C@@]1(F)C[C@@H](C(=O)NCc2cc(F)cc(-c3ccc(C(F)(F)F)nn3)c2)N(S(=O)(=O)c2ccc(F)cc2)C1 [Example 45, (2S,4R)-4-fluoro-1-(4-fluorophenyl)sulfonyl-N-[[3-fluoro-5-[6-(trifluoromethyl)pyridazin-3-yl]phenyl]methyl]-4-methyl-pyrrolidine-2-carboxamide]
55 | N#Cc1cnc(-c2cnc(C(F)(F)F)nc2)cc1CNC(=O)[C@@H]1C[C@@H](F)CN1S(=O)(=O)c1ccc(F)cc1 [Example 189, (2S,4R)—N-([5-cyano-2-[2-(trifluoromethyl)pyrimidin-5-yl]pyridin-4-yl]methyl)-4-fluoro-1-[(4-fluorobenzene)sulfonyl]pyrrolidine-2-carboxamide]
162 | Cc1cnc(CNC(=O)[C@@H]2C[C@@H](F)CN2S(=O)(=O)c2ccc(F)cc2)cc1-c1ccc(C(F)(F)F)nc1 [Example 96, (2S,4R)-4-fluoro-1-(4-fluorophenyl)sulfonyl-N-[[5-methyl-4-[6-(trifluoromethyl)-3-pyridyl]-2-pyridyl]methyl]pyrrolidine-2-carboxamide]
